Test results reported in patent publication US8426408B2, “Pyrimidine inhibitors of kinases” (AbbVie Inc., priority 2009, dated 2013).

Tests used:
Type in all cases: biochemical
Aurora B = target: T1, Aurora B (Homo sapiens, UniProt Q96GD4); experiment: Aurora B enzyme inhibition (time-resolved fluorescence, histone H3 peptide); settings: 1 mM ATP
T1 construct: Active Aurora B enzyme (recombinant residues 1-344)
Procedure, shortened: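 Recombinant Aurora B (residues 1-344) with GST-INCENP phosphorylated biotinylated histone H3 (1-21) peptide at 1 mM ATP in HEPES pH 7.4 with MgCl2, orthovanadate and Triton X-100 for 1 h. After EDTA stop, the phosphopeptide was detected by TR-FRET (Eu-cryptate anti-phospho-H3 / SA-APC, 665/615 nm ratio). IC50 from an exponential fit.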

KDR = KDR (Homo sapiens, UniProt P35968); experiment: KDR HTRF in vitro kinase assay; parameters: purified enzyme (His6-KDR 789-1354, MW 63 kD); His6 (N); settings: 1 mM ATP; read-out: KDR enzyme inhibition data (Ki)
Procedure, shortened: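 His6-KDR 789-1354 (7 ng/well) with 0.5 μM biotinylated peptide substrate and 1 mM ATP in HEPES pH 7.1, MgCl2/MnCl2, 60 min at room temperature. EDTA-quenched, detected by streptavidin-XL-665 plus Eu-kryptate anti-phosphotyrosine HTRF after 3 h; IC50 from 620/665 nm ratio.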

Aurora A = target: T2, Aurora A (Homo sapiens, UniProt O14965); experiment: Aurora A enzyme inhibition (time-resolved fluorescence, STK substrate-2); settings: 1 mM ATP
T2 sequence (O14965 1-403): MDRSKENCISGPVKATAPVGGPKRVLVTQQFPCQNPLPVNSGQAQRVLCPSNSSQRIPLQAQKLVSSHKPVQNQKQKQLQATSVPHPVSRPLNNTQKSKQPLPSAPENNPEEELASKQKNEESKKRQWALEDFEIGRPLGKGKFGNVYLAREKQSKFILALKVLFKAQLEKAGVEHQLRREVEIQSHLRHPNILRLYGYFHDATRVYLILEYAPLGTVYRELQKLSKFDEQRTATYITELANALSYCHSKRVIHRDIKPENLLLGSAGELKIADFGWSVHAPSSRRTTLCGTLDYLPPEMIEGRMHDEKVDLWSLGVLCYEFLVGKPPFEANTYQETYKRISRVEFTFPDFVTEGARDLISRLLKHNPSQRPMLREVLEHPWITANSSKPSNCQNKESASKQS
Procedure, shortened: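 Active enzyme incubated 1 h with biotinylated STK substrate-2, 1 mM ATP and inhibitor in Hepes pH 7.4 with MgCl2, orthovanadate and Triton X-100. EDTA stop; phosphopeptide detected by Eu-cryptate anti-phospho-STK/SA-XL665 TR-FRET (665/615 nm ratio); IC50 by exponential fit.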

Measured: Ki

Chain of KDR (P35968 789-1354): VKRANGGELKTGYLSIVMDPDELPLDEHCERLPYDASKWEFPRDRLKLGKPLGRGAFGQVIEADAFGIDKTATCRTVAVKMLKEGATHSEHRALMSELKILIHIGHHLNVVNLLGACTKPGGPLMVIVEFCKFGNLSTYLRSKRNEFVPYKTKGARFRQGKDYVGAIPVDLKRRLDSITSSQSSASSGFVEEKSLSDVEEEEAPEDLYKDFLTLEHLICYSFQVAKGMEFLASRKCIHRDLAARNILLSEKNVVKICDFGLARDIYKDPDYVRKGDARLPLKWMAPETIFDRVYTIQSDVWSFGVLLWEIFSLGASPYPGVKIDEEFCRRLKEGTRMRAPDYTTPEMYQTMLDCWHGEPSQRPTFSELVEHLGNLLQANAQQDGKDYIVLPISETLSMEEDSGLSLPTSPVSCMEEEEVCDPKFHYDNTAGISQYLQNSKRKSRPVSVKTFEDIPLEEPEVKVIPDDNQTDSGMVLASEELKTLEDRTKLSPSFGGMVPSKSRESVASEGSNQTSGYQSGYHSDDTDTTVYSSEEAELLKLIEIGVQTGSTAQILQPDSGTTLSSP
T1 sequence (Q96GD4 whole entry, the tested form may be a part): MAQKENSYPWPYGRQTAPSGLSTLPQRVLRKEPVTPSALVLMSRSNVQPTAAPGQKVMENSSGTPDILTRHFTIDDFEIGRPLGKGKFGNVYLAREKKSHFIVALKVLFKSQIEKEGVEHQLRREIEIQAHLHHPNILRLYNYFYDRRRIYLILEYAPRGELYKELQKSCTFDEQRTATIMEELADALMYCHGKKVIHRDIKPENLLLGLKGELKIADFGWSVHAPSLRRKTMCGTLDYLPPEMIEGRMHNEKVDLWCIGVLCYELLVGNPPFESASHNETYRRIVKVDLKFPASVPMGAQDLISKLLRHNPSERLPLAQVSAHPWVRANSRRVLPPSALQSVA
T1 sequence (Q9NQS7 826-918 partner limits assumed): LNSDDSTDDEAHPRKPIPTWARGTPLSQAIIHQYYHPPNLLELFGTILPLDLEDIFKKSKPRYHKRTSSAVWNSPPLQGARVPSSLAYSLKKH

NC(=O)[C@@H]1[C@H](Nc2nc(Nc3cnn(CCN4CCCC4)c3)ncc2Cl)[C@H]2C=C[C@@H]1C2 (racemic) [Example 34, (1S,2S,3R,4R)-3-[(5-chloro-2-{[1-(2-pyrrolidin-1-ylethyl)-1H-pyrazol-4-yl]amino}pyrimidin-4-yl)amino]bicyclo[2.2.1]hept-5-ene-2-carboxamide and (1R,2R,3S,4S)-3-[(5-chloro-2-{[1-(2-pyrrolidin-1-ylethyl)-1H-pyrazol-4-yl]amino}pyrimidin-4-yl)amino]bicyclo[2.2.1]hept-5-ene-2-carboxamide]
< 100 nM: all assays above

CCN(CC)CCn1cc(Nc2ncc(Cl)c(N[C@H]3[C@@H](C(N)=O)[C@@H]4C=C[C@H]3C4)n2)cn1 (racemic) [Example 35, (1S,2S,3R,4R)-3-{[5-chloro-2-({1-[2-(diethylamino)ethyl]-1H-pyrazol-4-yl}amino)pyrimidin-4-yl]amino}bicyclo[2.2.1]hept-5-ene-2-carboxamide and (1R,2R,3S,4S)-3-{[5-chloro-2-({1-[2-(diethylamino)ethyl]-1H-pyrazol-4-yl}amino)pyrimidin-4-yl]amino}bicyclo[2.2.1]hept-5-ene-2-carboxamide]
< 100 nM: all assays above

NC(=O)[C@@H]1[C@H](Nc2nc(Nc3cnn(CCN4CCCC4)c3)ncc2Br)[C@H]2C=C[C@@H]1C2 (racemic) [Example 44, (1S,2S,3R,4R)-3-[(5-bromo-2-{[1-(2-pyrrolidin-1-ylethyl)-1H-pyrazol-4-yl]amino}pyrimidin-4-yl)amino]bicyclo[2.2.1]hept-5-ene-2-carboxamide and (1R,2R,3S,4S)-3-[(5-bromo-2-{[1-(2-pyrrolidin-1-ylethyl)-1H-pyrazol-4-yl]amino}pyrimidin-4-yl)amino]bicyclo[2.2.1]hept-5-ene-2-carboxamide]
< 100 nM: all assays above

CNC(=O)[C@@H]1[C@H](Nc2nc(Nc3cnn(C)c3)ncc2Cl)[C@H]2C=C[C@@H]1C2 (racemic) [Example 50, (1S,2S,3R,4R)-3-({5-chloro-2-[(1-methyl-1H-pyrazol-4-yl)amino]pyrimidin-4-yl}amino)-N-methylbicyclo[2.2.1]hept-5-ene-2-carboxamide and (1R,2R,3S,4S)-3-({5-chloro-2-[(1-methyl-1H-pyrazol-4-yl)amino]pyrimidin-4-yl}amino)-N-methylbicyclo[2.2.1]hept-5-ene-2-carboxamide]
< 100 nM: all assays above

CNC(=O)Cn1cc(Nc2ncc(Cl)c(NC3C4CCC(C4)C3C(N)=O)n2)cn1 (racemic) [Example 61, (1R,2S,3R,4S)-3-{[5-chloro-2-({1-[2-(methylamino)-2-oxoethyl]-1H-pyrazol-4-yl}amino)pyrimidin-4-yl]amino}bicyclo[2.2.1]heptane-2-carboxamide and (1S,2R,3S,4R)-3-{[5-chloro-2-({1-[2-(methylamino)-2-oxoethyl]-1H-pyrazol-4-yl}amino)pyrimidin-4-yl]amino}bicyclo[2.2.1]heptane-2-carboxamide]
< 100 nM: all assays above

Cn1cc(Nc2ncc(Cl)c(N[C@H]3[C@@H](C(N)=O)[C@@H]4C=C[C@H]3C4)n2)cn1 [Example 41, (1S,2S,3R,4R)-3-({5-chloro-2-[(1-methyl-1H-pyrazol-4-yl)amino]pyrimidin-4-yl}amino)bicyclo[2.2.1]hept-5-ene-2-carboxamide]
< 100 nM: all assays above

CCn1cc(Nc2ncc(Cl)c(N[C@H]3[C@@H](C(N)=O)[C@@H]4C=C[C@H]3C4)n2)cn1 [Example 42, (1S,2S,3R,4R)-3-({5-chloro-2-[(1-ethyl-1H-pyrazol-4-yl)amino]pyrimidin-4-yl}amino)bicyclo[2.2.1]hept-5-ene-2-carboxamide]
< 100 nM: all assays above

CCn1cc(Nc2ncc(C(F)(F)F)c(N[C@H]3[C@@H](C(N)=O)[C@@H]4C=C[C@H]3C4)n2)cn1 [Example 62, (1S,2S,3R,4R)-3-{[2-[(1-ethyl-1H-pyrazol-4-yl)amino]-5-(trifluoromethyl)pyrimidin-4-yl]amino}bicyclo[2.2.1]hept-5-ene-2-carboxamide]
< 100 nM: all assays above

NC(=O)[C@@H]1[C@H](Nc2nc(Nc3cnn(CCO)c3)ncc2C(F)(F)F)[C@H]2C=C[C@@H]1C2 [Example 63, (1S,2S,3R,4R)-3-{[2-{[1-(2-hydroxyethyl)-1H-pyrazol-4-yl]amino}-5-(trifluoromethyl)pyrimidin-4-yl]amino}bicyclo[2.2.1]hept-5-ene-2-carboxamide]
< 100 nM: all assays above

NC(=O)[C@@H]1[C@H](Nc2nc(Nc3cnn(CC(F)(F)F)c3)ncc2C(F)(F)F)[C@H]2C=C[C@@H]1C2 [Example 64, (1S,2S,3R,4R)-3-{[2-{[1-(2,2,2-trifluoroethyl)-1H-pyrazol-4-yl]amino}-5-(trifluoromethyl)pyrimidin-4-yl]amino}bicyclo[2.2.1]hept-5-ene-2-carboxamide]
< 100 nM: all assays above

NC(=O)[C@@H]1[C@H](Nc2nc(Nc3cnn(CCO)c3)ncc2Cl)[C@H]2C=C[C@@H]1C2 [Example 65, (1S,2S,3R,4R)-3-[(5-chloro-2-{[1-(2-hydroxyethyl)-1H-pyrazol-4-yl]amino}pyrimidin-4-yl)amino]bicyclo[2.2.1]hept-5-ene-2-carboxamide]
< 100 nM: all assays above

NC(=O)[C@@H]1[C@H](Nc2nc(Nc3cnn(CC(F)(F)F)c3)ncc2Cl)[C@H]2C=C[C@@H]1C2 [Example 66, (1S,2S,3R,4R)-3-[(5-chloro-2-{[1-(2,2,2-trifluoroethyl)-1H-pyrazol-4-yl]amino}pyrimidin-4-yl)amino]bicyclo[2.2.1]hept-5-ene-2-carboxamide]
< 100 nM: all assays above

C[C@@H](O)Cn1cc(Nc2ncc(C(F)(F)F)c(N[C@H]3[C@@H](C(N)=O)[C@@H]4C=C[C@H]3C4)n2)cn1 [Example 69, (1S,2S,3R,4R)-3-{[2-({1-[(2R)-2-hydroxypropyl]-1H-pyrazol-4-yl}amino)-5-(trifluoromethyl)pyrimidin-4-yl]amino}bicyclo[2.2.1]hept-5-ene-2-carboxamide]
< 100 nM: all assays above

NC(=O)[C@@H]1[C@H](Nc2nc(Nc3cnn([C@H]4CCNC4)c3)ncc2Cl)[C@H]2C=C[C@@H]1C2 [Example 72, (1S,2S,3R,4R)-3-{[5-chloro-2-({1-[(3S)-pyrrolidin-3-yl]-1H-pyrazol-4-yl}amino)pyrimidin-4-yl]amino}bicyclo[2.2.1]hept-5-ene-2-carboxamide]
< 100 nM: all assays above

NC(=O)[C@@H]1[C@H](Nc2nc(Nc3cnn([C@@H]4CCNC4)c3)ncc2Cl)[C@H]2C=C[C@@H]1C2 [Example 73, (1S,2S,3R,4R)-3-{[5-chloro-2-({1-[(3R)-pyrrolidin-3-yl]-1H-pyrazol-4-yl}amino)pyrimidin-4-yl]amino}bicyclo[2.2.1]hept-5-ene-2-carboxamide]
< 100 nM: all assays above

NC(=O)Cn1cc(Nc2ncc(Cl)c(N[C@H]3[C@@H](C(N)=O)[C@@H]4C=C[C@H]3C4)n2)cn1 [Example 74, (1S,2S,3R,4R)-3-[(2-{[1-(2-amino-2-oxoethyl)-1H-pyrazol-4-yl]amino}-5-chloropyrimidin-4-yl)amino]bicyclo[2.2.1]hept-5-ene-2-carboxamide]
< 100 nM: all assays above
